Data set [1] concerns the target T1, CES2 (Homo sapiens, UniProt O00748).
T1 construct: purchased
T1 sequence (O00748 27-559): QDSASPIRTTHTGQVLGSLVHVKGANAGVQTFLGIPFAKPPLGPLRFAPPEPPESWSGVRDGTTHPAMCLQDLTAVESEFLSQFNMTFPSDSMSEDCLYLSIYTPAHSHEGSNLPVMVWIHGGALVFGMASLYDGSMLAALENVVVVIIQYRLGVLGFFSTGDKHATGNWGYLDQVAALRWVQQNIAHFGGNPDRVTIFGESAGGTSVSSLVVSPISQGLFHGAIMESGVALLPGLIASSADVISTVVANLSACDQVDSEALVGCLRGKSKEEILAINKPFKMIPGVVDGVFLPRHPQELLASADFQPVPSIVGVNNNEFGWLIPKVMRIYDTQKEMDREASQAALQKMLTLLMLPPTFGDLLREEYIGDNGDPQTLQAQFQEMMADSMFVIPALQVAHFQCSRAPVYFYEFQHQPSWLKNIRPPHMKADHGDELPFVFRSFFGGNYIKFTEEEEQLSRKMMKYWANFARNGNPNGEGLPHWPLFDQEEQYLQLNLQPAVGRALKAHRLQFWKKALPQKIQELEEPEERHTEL
As to the kind of experiment: CES1/2 stability, CES2. In kind it is in vitro ADME. As to conditions: CES2 Supersome preparation; Supersome preparations, CES 1.5 mg/ml, 2 μM substrate, pH 7.4, 37° C.; read-out: CES2 T1/2. The procedure:
Test compounds or positive control substrates (oseltamivir for CES1 enzymes or procaine for CES2) were incubated with individual Supersome preparations (final CES concentration 1.5 mg/ml) in 0.1 M potassium phosphate buffer (pH 7.4) at 37° C. Substrates were added to a final concentration of 2 μM to initiate the reaction. The final incubation volume was 250 μL. Aliquots were removed after incubation for 0, 10, 30, 60 and 120 min. The reactions were stopped by the addition of IS/Q. Following protein precipitation and centrifugation, 150 μL of supernatant was diluted with an equal volume of water prior to LC-MS analysis. For procaine 150 μL of supernatant was dried down and reconstituted with 250 μL water. All samples were analyzed by LC-MS and the PAR values were used for quantification.

The nature of data set [2]: in vitro. As to conditions: African green monkey.
Data set [3] in a line: in vitro. The conditions noted are these: human, s9, pH 7.4. It counts as in vitro ADME, Human. Put shortly: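 Compound at 2 μM final was incubated with S9 fraction at 1.0 mg/mL protein in 100 mM PBS pH 7.4, in duplicate, with GS-7340 as positive control. Samples were taken at 0, 10, 20, 30, 60 and 120 min and quenched with internal standard. Remaining compound was quantified by LC-MS as analyte/internal-standard peak-area ratio.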

Data set [4] is described as follows: in vitro. It counts as in vitro ADME. The conditions noted are these: s9, pH 7.4. The procedure:
Duplicate aliquots of test compound or positive control substrate (GS-7340) were added to S9 stock diluted with 100 mM potassium phosphate buffer, pH 7.4, to obtain a protein concentration of 2.4 mg/mL. The S9 metabolic reactions were initiated by the addition of the substrates to the S9 reaction mixture to a final concentration of 2 μM. At 2, 12, 25, 45, 65 and 90 min, 25 μL aliquots of the reaction mixture were transferred to plates containing 225 μl of IS/Q solution. After quenching, the plates were centrifuged at 3000×g for 30 minutes, and 150 μl, aliquots of each supernatant were diluted with 150 μl, water. Aliquots (10 μL) of the diluted supernatant were analyzed on a Thermo Q-Exactive mass spectrometer as described below.
Quantification of test compounds and controls was performed by analyte/internal standard peak area ratio (PAR) values measured on a Thermo Q-Exactive mass spectrometer coupled to a Dionex UltiMate 3000 HPLC with a Leap Technologies HTC PAL autosampler. The column used was a Thermo Hypersil GOLD (1.9 μm particle size, 2.1×50 mm). Mobile phase A consisted of 0.1% (v/v) formic acid in water. Mobile phase B consisted of 0.1% (v/v) formic acid in acetonitrile. Elution of analytes was achieved by a series of linear gradients of acetonitrile in water containing 0.1% (v/v) formic acid. The mass spectrometer was calibrated on a weekly basis and mass tolerance of 5 ppm was used.

In data set [5] the test system is SARS-CoV-2 WA1/2020 A. As to the kind of experiment: microbe, parasite or virus in culture. In kind it is cell-based. The conditions noted are these: Severe acute respiratory syndrome coronavirus 2, Vero C1008.
In data set [6] the test system is RSV-Fluc (Respiratory Syncytial virus strain A2 containing the firefly luciferase reporter). As to the kind of experiment: microbe, parasite or virus in culture. It counts as cell-based. The conditions noted are these: human respiratory syncytial virus, 72 h, NHBE cells, three days.
Data set [7] is described as follows: in vitro. The conditions noted are these: hamster.
The nature of data set [8]: Plasma stability. The conditions noted are these: human.
In data set [9] the test system is SARS-CoV-2 hCoV-19/Japan/TY7-503/2021 (BZ/2021). In kind it is in vivo.
The conditions of data set [10]: male, Sprague-Dawley, rat, in vivo, po, 8 mg/kg.

The structures appear in SMILES notation. pEC50: −log10 of the molar value.

As for `CC(C)C(=O)OC[C@H]1O[C@@](C#N)(c2ccc3c(N)ncnn23)[C@H](OC(=O)C(C)C)[C@@H]1OC(=O)C(C)C` [Compound 1, (2R,3R,4R,5R)-2-(4-aminopyrrolo[2,1-f][1,2,4]triazin-7-yl)-2-cyano-5-((isobutyryloxy)methyl)tetrahydrofuran-3,4-diyl bis(2-methylpropanoate)], the half-life at 2 μM in data set [1] was below 1 min; in data set [3], 0.37 min; in [4] it was 2 min; in data set [8], 5.5 min. The CC50 in [2] and in data set [7] was above 100000 nM throughout. Also, the pEC50 in data set [5] is 6.14; in data set [6], 6.41. The “Infectious viral particles in nasal turbinates of contact animals” value in [9] ([…], 5.5 days after initiation of co-housing) was “absent”. For the same molecule, the “Shedding of infectious particles or viral RNA by contacts of treated source ferrets” value in [9] ([…], source animals oral 10 mg/kg b.i.d.) is on record as “None of the contacts of treated source ferrets shed infectious particles or viral RNA at any time”. The “Viral RNA in nasal turbinates of the contact animals” value in data set [9] (in vivo) is < 10^5 copies/g nasal turbinate. For the same molecule, the “Lowering of viral RNA copies in nasal lavages and turbinates” value in data set [9] (in vivo, po, 10 mg/kg) was “over three orders of magnitude”. In addition, the “Shed virus burden (nasal lavage)” value in [9] (in vivo, po, 10 mg/kg) is “undetectable”. In addition, in data set [9] (in vivo, po, 10 mg/kg), the “Tissue titers (nasal turbinates)” value is recorded as “undetectable”. In data set [10], this molecule registered a Cmax of 5.83 µM.

The record behind these values is patent US11926645B2, “Compounds and methods for treatment of viral infections” (priority 2020, dated 2024).
